In patent publication US8372854B2, “Pyrrolo[2,3-D]pyrimidine compounds” (Pfizer Inc., priority 2009, dated 2013):
pIC50: −log10 of the molar value.

Legend:
Type in all cases: biochemical
JAK2 = target: T1, JAK2 (Homo sapiens, UniProt O60674); test: JAK enzymatic assay (peptide mobility shift), JAK2; settings: recombinant JAK2 2 nM, ATP 4 μM, 1 μM JAKtide peptide, 150 minutes
T1 construct: purchased Invitrogen Corporation, Madison, Wis; PV4210
Source text: (§1) Recombinant JAK1 (Catalog Number PV4775), JAK2 (Catalog Number PV4210) and JAK3 (Catalog Number PV3855) were purchased from (Invitrogen Corporation, Madison, Wis.). Tyk2 (His-Tyk2 (888-1182, C936S, C1142S)) used in this study was expressed and purified at Pfizer Laboratories. Adenosine 5′-triphosphate (ATP) was obtained from (Sigma Chemical Company, St. Louis, Mo.). The JAKtide peptide (peptide sequence, FITC-[…]) used for the JAK2 and JAK3 assays and the IRS-1 peptide (peptide sequence, 5-FAM-[…]) used for the JAK1 and Tyk2 assays were purchased from (American Peptide Company, Sunnyvale, Calif.). Coating Reagent 3 was purchased from (Caliper Life Sciences, Hopkinton, Mass.).
(§2) A peptide mobility shift assay was used to quantify the phosphorylation of the JAKtide (JAK2 and JAK3) or the IRS-1 peptide ([…] and Tyk2). Reactions were carried out in a 384-well plate (Matrical MP-101) in a 10 μL total volume. Reaction mixtures contained 20 mM HEPES, pH 7.4, 10 mM magnesium chloride, 0.01% bovine serum albumin (BSA), 0.0005% Tween-20, ATP (4 μM for JAK2 and JAK3, 40 μM for JAK1 and 7 μM for Tyk2)), 2% DMSO and 1 μM peptide substrate (JAKtide for JAK2 and JAK3 and IRS-1 peptide for JAK1 and Tyk2). Compounds were diluted serially in 100% dimethyl sulfoxide and tested in an 11 point dose response in duplicate or quadruplicate (200 nl of compound/DMSO was added per 10 μL reaction). The reactions were initiated by the addition of enzyme to the final concentration of 2 nM JAK2, 1 nM JAK3, 12 nM Tyk2 or 20 nM JAK1. The assay was run for 240 minutes for JAK1, 150 minutes for JAK2, 90 minutes for JAK3 and 70 minutes for Tyk2. The assays were stopped at the specified times with 20 uL of 140 mM HEPES, 22.5 mM EDTA and 0.15% Coating Reagent 3. The plates were placed on a LabChip 3000 (LC3000) instrument from (Caliper Life Sciences) to measure the formation of phosphorylated peptide. Data was analyzed using Hits Well Analyzer Software from (Caliper Life Sciences) to obtain the amount of product formed.
(§3) Data was then imported into an internal application where each data point is expressed as % inhibition based on uninhibited and no enzyme controls. Dose-response data is then fit using a 4 parameter logistic equation (Equation 1) to determine an IC50.
(§4) Where max is the fitted uninhibited value, min is the fitted complete inhibition value, and s is the slope factor.

JAK1 = target: T2, JAK1 (Homo sapiens, UniProt P23458); test: JAK enzymatic assay (peptide mobility shift), JAK1; settings: recombinant JAK1 20 nM, ATP 40 μM, 1 μM IRS-1 peptide, 240 minutes
T2 construct: purchased Invitrogen Corporation, Madison, Wis; PV4775
Source text: as §1, §2, §3, §4

JAK3 = target: T3, JAK3 (Homo sapiens, UniProt P52333); test: JAK enzymatic assay (peptide mobility shift), JAK3; settings: recombinant JAK3 1 nM, ATP 4 μM, 1 μM JAKtide peptide, 90 minutes
T3 construct: purchased Invitrogen Corporation, Madison, Wis; PV3855
T3 sequence (P52333 1-1124): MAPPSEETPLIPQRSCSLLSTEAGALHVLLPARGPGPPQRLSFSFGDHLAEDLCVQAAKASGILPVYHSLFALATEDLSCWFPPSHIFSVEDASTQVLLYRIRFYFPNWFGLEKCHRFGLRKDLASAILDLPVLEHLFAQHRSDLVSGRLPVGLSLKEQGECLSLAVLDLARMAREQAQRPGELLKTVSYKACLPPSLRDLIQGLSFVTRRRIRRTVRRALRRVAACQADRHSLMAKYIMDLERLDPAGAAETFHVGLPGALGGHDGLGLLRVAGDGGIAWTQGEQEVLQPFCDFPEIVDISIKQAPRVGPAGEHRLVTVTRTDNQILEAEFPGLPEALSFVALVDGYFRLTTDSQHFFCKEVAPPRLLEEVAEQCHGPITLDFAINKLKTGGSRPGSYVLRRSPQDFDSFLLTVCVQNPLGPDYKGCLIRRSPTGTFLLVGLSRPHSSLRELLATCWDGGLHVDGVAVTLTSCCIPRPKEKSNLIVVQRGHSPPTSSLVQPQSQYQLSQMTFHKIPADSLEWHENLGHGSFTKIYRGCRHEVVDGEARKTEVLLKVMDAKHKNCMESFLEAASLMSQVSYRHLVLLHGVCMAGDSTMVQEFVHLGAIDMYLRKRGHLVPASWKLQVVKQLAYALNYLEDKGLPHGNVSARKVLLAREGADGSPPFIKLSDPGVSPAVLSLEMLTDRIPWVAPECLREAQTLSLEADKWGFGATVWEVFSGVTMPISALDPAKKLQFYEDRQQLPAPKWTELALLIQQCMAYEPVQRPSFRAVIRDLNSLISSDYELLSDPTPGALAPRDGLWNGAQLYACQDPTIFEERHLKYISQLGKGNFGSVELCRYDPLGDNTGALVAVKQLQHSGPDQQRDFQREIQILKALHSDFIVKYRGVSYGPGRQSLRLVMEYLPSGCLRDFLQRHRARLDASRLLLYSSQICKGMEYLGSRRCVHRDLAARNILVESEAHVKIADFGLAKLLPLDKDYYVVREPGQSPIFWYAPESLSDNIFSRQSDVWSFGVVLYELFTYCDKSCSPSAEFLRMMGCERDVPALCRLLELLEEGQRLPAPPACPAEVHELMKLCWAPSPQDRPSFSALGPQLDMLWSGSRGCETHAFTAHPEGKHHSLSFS
Source text: Recombinant JAK1 (Catalog Number PV4775), JAK2 (Catalog Number PV4210) and JAK3 (Catalog Number PV3855) were purchased from (Invitrogen Corporation, Madison, Wis.). Tyk2 (His-Tyk2 (888-1182, C936S, C1142S)) used in this study was expressed and purified at Pfizer Laboratories. Adenosine 5′-triphosphate (ATP) was obtained from (Sigma Chemical Company, St. Louis, Mo.). […] Coating Reagent 3 was purchased from (Caliper Life Sciences, Hopkinton, Mass.).
as §2, §3, §4

T2 sequence (P23458 whole entry): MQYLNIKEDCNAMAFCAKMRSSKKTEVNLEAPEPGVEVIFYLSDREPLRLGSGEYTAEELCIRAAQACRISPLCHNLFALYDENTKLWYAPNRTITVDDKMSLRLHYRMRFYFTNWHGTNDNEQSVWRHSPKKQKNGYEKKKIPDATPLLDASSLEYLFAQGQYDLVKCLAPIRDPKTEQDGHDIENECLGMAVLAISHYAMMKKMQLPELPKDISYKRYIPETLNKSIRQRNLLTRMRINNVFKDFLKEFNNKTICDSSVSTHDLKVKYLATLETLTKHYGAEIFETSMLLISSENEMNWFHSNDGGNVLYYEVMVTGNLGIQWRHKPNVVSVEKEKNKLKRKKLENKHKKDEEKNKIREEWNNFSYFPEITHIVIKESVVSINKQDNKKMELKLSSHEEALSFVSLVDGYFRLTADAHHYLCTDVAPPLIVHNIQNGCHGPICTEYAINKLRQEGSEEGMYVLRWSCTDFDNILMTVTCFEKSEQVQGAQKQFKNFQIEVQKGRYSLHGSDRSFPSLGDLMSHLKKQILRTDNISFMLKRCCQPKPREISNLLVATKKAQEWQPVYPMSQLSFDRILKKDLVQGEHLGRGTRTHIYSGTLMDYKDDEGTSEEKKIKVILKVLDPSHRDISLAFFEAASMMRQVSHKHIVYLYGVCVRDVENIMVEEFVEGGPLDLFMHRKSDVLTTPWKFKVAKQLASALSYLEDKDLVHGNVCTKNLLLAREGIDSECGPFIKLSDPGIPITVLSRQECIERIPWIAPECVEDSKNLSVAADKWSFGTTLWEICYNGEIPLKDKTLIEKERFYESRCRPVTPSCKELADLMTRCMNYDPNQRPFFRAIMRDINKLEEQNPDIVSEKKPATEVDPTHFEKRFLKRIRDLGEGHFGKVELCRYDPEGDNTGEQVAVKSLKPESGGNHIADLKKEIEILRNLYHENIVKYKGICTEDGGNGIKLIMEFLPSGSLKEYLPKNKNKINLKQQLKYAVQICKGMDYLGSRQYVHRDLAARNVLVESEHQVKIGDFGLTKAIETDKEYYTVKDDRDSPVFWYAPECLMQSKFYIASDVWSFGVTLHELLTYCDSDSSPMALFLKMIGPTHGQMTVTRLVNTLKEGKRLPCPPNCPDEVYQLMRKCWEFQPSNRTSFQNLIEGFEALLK
T1 sequence (O60674 whole entry): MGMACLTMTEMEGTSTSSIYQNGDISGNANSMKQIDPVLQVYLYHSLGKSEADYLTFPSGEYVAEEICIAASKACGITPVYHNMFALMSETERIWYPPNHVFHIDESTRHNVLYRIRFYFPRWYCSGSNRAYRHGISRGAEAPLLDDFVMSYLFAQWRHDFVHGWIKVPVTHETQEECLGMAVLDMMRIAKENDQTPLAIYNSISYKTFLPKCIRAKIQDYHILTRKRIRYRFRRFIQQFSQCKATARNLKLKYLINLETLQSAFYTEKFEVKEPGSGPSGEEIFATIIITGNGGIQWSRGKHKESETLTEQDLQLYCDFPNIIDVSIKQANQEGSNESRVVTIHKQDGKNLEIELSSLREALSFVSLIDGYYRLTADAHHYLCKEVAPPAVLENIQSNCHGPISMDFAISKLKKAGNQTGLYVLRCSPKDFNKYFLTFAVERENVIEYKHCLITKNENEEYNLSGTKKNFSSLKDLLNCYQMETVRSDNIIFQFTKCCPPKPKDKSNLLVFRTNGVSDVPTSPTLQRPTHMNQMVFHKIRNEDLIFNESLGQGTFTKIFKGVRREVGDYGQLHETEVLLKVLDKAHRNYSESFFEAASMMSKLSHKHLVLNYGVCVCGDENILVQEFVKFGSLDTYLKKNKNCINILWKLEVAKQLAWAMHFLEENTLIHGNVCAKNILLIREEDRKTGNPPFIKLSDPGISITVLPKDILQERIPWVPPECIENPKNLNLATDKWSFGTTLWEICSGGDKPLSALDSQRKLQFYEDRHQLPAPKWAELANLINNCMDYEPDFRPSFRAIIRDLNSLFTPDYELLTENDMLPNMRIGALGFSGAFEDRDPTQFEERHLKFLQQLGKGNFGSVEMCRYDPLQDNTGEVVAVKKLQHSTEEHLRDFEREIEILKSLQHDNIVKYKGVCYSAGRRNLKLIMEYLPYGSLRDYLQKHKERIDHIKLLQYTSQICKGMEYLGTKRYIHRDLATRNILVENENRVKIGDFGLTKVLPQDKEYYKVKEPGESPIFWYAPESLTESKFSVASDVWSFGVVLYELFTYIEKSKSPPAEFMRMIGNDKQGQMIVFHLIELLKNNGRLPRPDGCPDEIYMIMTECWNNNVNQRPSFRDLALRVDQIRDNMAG

| pIC50 (JAK2) | pIC50 (JAK1) | pIC50 (JAK3) | Compound |
| --- | --- | --- | --- |
| 7.47 | 7.94 | 6.70 | CN(c1ncnc2[nH]ccc12)[C@H]1CC[C@@H](CS(=O)(=O)NCC2CC2)CC1 [Example 55, N-(cyclopropylmethyl)-1-{cis-4-[methyl(7H-pyrrolo[2,3-d]pyrimidin-4-yl)amino]cyclohexyl}-methanesulfonamide] |
| 7.93 | 8.37 | 7.00 | CN(c1ncnc2[nH]ccc12)[C@H]1CC[C@H](CS(=O)(=O)NCC(F)(F)c2ccccc2)CC1 [Example 6, N-(2,2-difluoro-2-phenyl-ethyl)-1-{trans-4-[methyl-(7H-pyrrolo[2,3-d]pyrimidin-4-yl)amino]cyclohexyl}-methanesulfonamide] |
| 6.76 | 7.79 | 5.97 | CN(c1ncnc2[nH]ccc12)[C@H]1CC[C@H](CS(=O)(=O)NC[C@H]2CCCO2)CC1 [Example 47, 1-{trans-4-[methyl(7H-pyrrolo[2,3-d]pyrimidin-4-yl)amino]cyclohexyl}-N-[(2R)-tetrahydrofuran-2-ylmethyl]-methanesulfonamide] |
| 7.38 | 8.11 | 6.53 | CN(c1ncnc2[nH]ccc12)[C@H]1CC[C@H](CS(=O)(=O)NCCc2cccc(Cl)c2)CC1 [Example 36, N-[2-(3-chlorophenyl)ethyl]-1-{trans-4-[methyl(7H-pyrrolo[2,3-d]pyrimidin-4-yl)amino]cyclohexyl}-methanesulfonamide] |
| 8.04 | 8.52 | 6.86 | Cc1ccc(CCNS(=O)(=O)C[C@H]2CC[C@H](N(C)c3ncnc4[nH]ccc34)CC2)c(C)c1 [Example 4, N-[2-(2,4-dimethylphenyl)-ethyl]-1-{trans-4-[methyl-(7H-pyrrolo[2,3-d]pyrimidin-4-yl)amino]cyclohexyl}-methanesulfonamide] |
| 7.18 | 7.71 | 6.57 | CN(c1ncnc2[nH]ccc12)[C@H]1CC[C@H](CS(=O)(=O)NCCC(F)=C(F)F)CC1 [Example 48, 1-{trans-4-[methyl(7H-pyrrolo[2,3-d]pyrimidin-4-yl)amino]cyclohexyl}-N-(3,4,4-trifluorobut-3-en-1-yl)methanesulfonamide] |
| 7.12 | 8.16 | 6.21 | CN(Cc1cccnc1)S(=O)(=O)C[C@H]1CC[C@H](N(C)c2ncnc3[nH]ccc23)CC1 [Example 35, N-methyl-1-{trans-4-[methyl(7H-pyrrolo[2,3-d]-pyrimidin-4-yl)amino]-cyclohexyl}-N-(pyridin-3-ylmethyl)-methanesulfonamide] |
| 7.69 | 8.33 | 6.83 | CN(c1ncnc2[nH]ccc12)[C@H]1CC[C@H](CS(=O)(=O)NCCc2ccccc2F)CC1 [Example 14, N-[2-(2-fluorophenyl)ethyl]-1-{trans-4-[methyl(7H-pyrrolo[2,3-d]pyrimidin-4-yl)amino]cyclohexyl}methanesulfonamide] |
| 7.40 | 7.72 | 6.76 | CN(c1ncnc2[nH]ccc12)[C@H]1CC[C@H](CS(=O)(=O)Nc2ccc3[nH]ncc3c2)CC1 [Example 26, N-1H-indazol-5-yl-1-{trans-4-[methyl(7H-pyrrolo[2,3-d]pyrimidin-4-yl)amino]-cyclohexyl}-methanesulfonamide] |
| 7.24 | 8.03 | 6.42 | CN(c1ncnc2[nH]ccc12)[C@H]1CC[C@H](CS(=O)(=O)NCc2cccnc2)CC1 [Example 19, 1-{trans-4-[methyl(7H-pyrrolo[2,3-d]pyrimidin-4-yl)amino]cyclohexyl}-N-(pyridin-3-ylmethyl)-methanesulfonamide] |
| 7.09 | 7.67 | 6.20 | Cc1cccc(CCNS(=O)(=O)C[C@H]2CC[C@H](N(C)c3ncnc4[nH]ccc34)CC2)n1 [Example 50, N-[2-(6-methylpyridin-2-yl)ethyl]-1-{trans-4-[methyl(7H-pyrrolo[2,3-d]-pyrimidin-4-yl)amino]-cyclohexyl}-methanesulfonamide] |
| 7.53 | 7.87 | 6.74 | CN(c1ncnc2[nH]ccc12)[C@H]1CC[C@H](CS(=O)(=O)NCc2ccccc2)CC1 [Example 16, N-benzyl-1-{trans-4-[methyl-(7H-pyrrolo[2,3-d]pyrimidin-4-yl)amino]-cyclohexyl}-methanesulfonamide] |
| 7.21 | 7.87 | 6.37 | CN(c1ncnc2[nH]ccc12)[C@H]1CC[C@H](CS(=O)(=O)NCC(F)c2ccc(F)cc2)CC1 (stereo partly drawn) [Example 11, N-[2-fluoro-2-(4-fluoro-phenyl)ethyl]-1-{trans-4-[methyl(7H-pyrrolo[2,3-d]-pyrimidin-4-yl)amino]-cyclohexyl}-methanesulfonamide] |
| 7.30 | 7.82 | 6.31 | Cc1cnc(CNS(=O)(=O)C[C@H]2CC[C@H](N(C)c3ncnc4[nH]ccc34)CC2)cn1 [Example 45, N-[(5-methylpyrazin-2-yl)methyl]-1-{trans-4-[methyl(7H-pyrrolo[2,3-d]-pyrimidin-4-yl)amino]cyclohexyl}-methanesulfonamide] |
| 7.62 | 8.31 | 6.72 | CN(c1ncnc2[nH]ccc12)[C@H]1CC[C@H](CS(=O)(=O)NCCc2cccc(F)c2)CC1 [Example 33, N-[2-(3-fluorophenyl)ethyl]-1-{trans-4-[methyl(7H-pyrrolo[2,3-d]pyrimidin-4-yl)amino]cyclohexyl}-methanesulfonamide] |
| 7.34 | 8.00 | 6.65 | CN(c1ncnc2[nH]ccc12)[C@H]1CC[C@H](CS(=O)(=O)NC2CC2)CC1 [Example 1, N-cyclopropyl-1-{trans-4-[methyl(7H-pyrrolo[2,3-d]pyrimidin-4-yl)amino]cyclohexyl}methanesulfonamide] |
